Format in all cases: biochemical
The subject of one test is PDE I. Description: PDE inhibition, type I PDE (cGMP substrate, calmodulin/CaCl2 added). The conditions noted are these: PDE I from porcine hearts, cGMP 1 μM; read-out: Inhibition of PDE Isoenzymes (IC50) I. On the procedure: (§1) The assays for PDE activity were conducted according to Nicholson et al. method (Br. J. Pharmacol., 97, 889 (1989)).
(§2) Among PDE isozymes, type I, II, III and IV PDEs as used herein were separated from porcine hearts by using an anion exchange chromatography. Type V PDE was also separated from porcine aortae with an anion exchange chromatography and used herein.
(§3) Each PDE isozyme was admixed with ethylene glycol (EG) to adjust the final EG concentration to 30%, then stored at −20° C. and diluted when used. The enzymatic activity for PDE I and V was measured using cGMP as a substrate while that for POE II, III and IV was measured using cAMP.
(§4) [^3H]-cAMP (962 GBq/mmol; Amersham, 25 μl (100,000 cpm)) or [^3H]-cGMP (962 GBq/mmol; Amersham, 25 μl (100,000 cpm)) was added together with each PDE isozyme (25 μl) to an incubation buffer solution with the composition given below to adjust the total volume to 250 μl. Each test compound was dissolved in DMSO to adjust the final concentration to 1% (2.5 μl/tube).
(§5) Incubation buffer solution (pH7.5):
(§6) Tris-HCl (50 mM), magnesium chloride (6 mM), dithiothreitol
(§7) (2.5 mM), 5-nucleotidase (4 μg/ml), bovine serum albumin
(§8) (0.23 mg/ml), and cAMP (1 μM) [or cGMP (1 μM)]
(§9) A mixture of the aforementioned test compound solution and the buffer solution was incubated at 30° C. for 20 minutes. The reaction was quenched by admixing with 1 ml of anion exchange resin slurry (AG1-X8, 200-400 meshes, chloride form; Bio-Rad) to absorb unreacted substrates.
(§10) After the reaction stopped, the mixture was centrifuged at 200×g for 10 minutes, and the resulting supernatant was collected with vials in 250 μl aliquots. To each vial was added 5 ml of ACS-II (scintillator, Amersham). The radioactivity was measured with a liquid scintillator counter for [^3H]-adenosine or [^3H]-guanosine and set as the PDE activity. The measurements were conducted under conditions wherein the enzymatic activity was elevated by adding calmodulin (20 U/ml; Amersham) and calcium chloride (0.1 mM) for PDE-I and cGMP (1 μM) for PDE II, respectively.
(§11) The % inhibition was calculated for test compounds, and IC50 (the concentration of each test compound required for 50% inhibition) was obtained by Probit method. The aforementioned rolipram ((−)-isomer, optical purity: 91% e.e.) known as the PDE IV inhibitor in the prior art was used for the reference compound in this assay.

For the next test, the target named is T1, PDE II (Sus scrofa, UniProt F1SUV3).
T1 sequence (F1SUV3 1-945): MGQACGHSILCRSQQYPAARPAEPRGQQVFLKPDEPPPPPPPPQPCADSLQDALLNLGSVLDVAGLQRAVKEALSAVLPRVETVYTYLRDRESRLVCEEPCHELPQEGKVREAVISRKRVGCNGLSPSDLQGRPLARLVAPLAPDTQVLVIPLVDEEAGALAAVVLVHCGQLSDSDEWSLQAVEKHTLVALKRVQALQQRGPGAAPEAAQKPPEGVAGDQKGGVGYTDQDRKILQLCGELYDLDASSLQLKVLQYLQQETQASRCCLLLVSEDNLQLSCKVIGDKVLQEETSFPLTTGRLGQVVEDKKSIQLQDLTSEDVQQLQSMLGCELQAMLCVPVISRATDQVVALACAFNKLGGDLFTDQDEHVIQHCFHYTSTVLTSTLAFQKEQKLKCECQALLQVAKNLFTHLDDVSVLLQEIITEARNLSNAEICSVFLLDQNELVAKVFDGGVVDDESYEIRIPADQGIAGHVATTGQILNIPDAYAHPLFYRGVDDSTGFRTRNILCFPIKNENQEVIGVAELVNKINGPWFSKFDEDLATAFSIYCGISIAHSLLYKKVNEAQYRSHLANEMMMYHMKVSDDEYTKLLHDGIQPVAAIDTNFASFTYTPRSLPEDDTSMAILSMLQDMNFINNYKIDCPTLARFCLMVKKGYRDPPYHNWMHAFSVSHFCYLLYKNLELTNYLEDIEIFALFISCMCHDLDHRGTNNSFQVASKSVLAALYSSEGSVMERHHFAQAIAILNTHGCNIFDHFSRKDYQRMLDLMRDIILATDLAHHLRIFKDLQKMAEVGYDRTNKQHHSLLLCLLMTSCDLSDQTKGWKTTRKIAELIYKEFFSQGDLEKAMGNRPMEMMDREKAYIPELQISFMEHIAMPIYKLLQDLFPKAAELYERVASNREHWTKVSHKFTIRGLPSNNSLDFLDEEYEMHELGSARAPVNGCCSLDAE
Description: PDE inhibition, type II PDE (cAMP substrate, cGMP added). The conditions noted are these: PDE II from porcine hearts, cAMP 1 μM; read-out: Inhibition of PDE Isoenzymes (IC50) II. On the procedure: as §1, §2, §3, §4, §5, §6, §7, §8, §9, §10, §11

For the next test, the system named is T2, PDE IV.
T2 construct: other: PDE IV from porcine hearts, cAMP 1 μM
Description: PDE inhibition, type IV PDE (cAMP substrate). The conditions noted are these: PDE IV from porcine hearts, cAMP 1 μM; read-out: Inhibition of PDE Isoenzymes (IC50) IV. The method, then:
as §1, §2, §3, §4, §5, §6, §7, §8, §9, §10, §11
Further, for a comparison with compounds as disclosed in JP, A, 63-159382 (1988), the PDE-inhibiting activity was also measured for Compounds A and D in Table 1 of JP, A, 63-159382 (1988).

A further test has as its target T3, PDE V (Sus scrofa, UniProt A0A287B475).
T3 construct: Type V PDE was also separated from porcine aortae with an anion exchange chromatography and used herein
Put plainly: PDE inhibition, type V PDE (cGMP substrate). The conditions noted are these: PDE V from porcine aortae, cGMP 1 μM; read-out: Inhibition of PDE Isoenzymes (IC50) V. The method, then: as §1, §2, §3, §4, §5, §6, §7, §8, §9, §10, §11

For orientation: IC50 means the concentration at which inhibition is half-maximal. For the compound `CSc1cccc(-n2c(=O)c(CCCc3ccncc3)cc3cccnc32)c1` [Example No. 10, 1-(3-Methylthiophenyl)-3-[3-(pyridin-4-yl)propyl]-1,8-naphthyridin-2(1H)-one], the IC50 in the test with PDE I is above 100 µM; at PDE II it was 52 µM; with PDE IV it was 1.5 µM; at PDE V it was 13 µM.
Consider `O=c1c(CCCCCc2cccnc2)cc2cccnc2n1-c1cccc([N+](=O)[O-])c1` [Example No. 16, 1-(3-Nitrophenyl)-3-[5-(pyridin-3-yl)pentyl]-1,8-naphthyridin-2(1H)-one], for which the IC50 is 98 µM with PDE I, 63 µM on PDE II, 1.9 µM in the test on PDE IV and 7.4 µM at PDE V.
The corresponding values for `O=c1c(CCCc2ccncc2)cc2cccnc2n1-c1cccnc1` [Example No. 23, 1-(Pyridin-3-yl)-3-[3-(pyridin-4-yl)propyl]-1,8-naphthyridin-2(1H)-one] are above 100 µM, above 100 µM, 1.2 µM and above 100 µM.
Take `O=c1c(CCc2ccncc2)cc2cccnc2n1-c1cccc([N+](=O)[O-])c1` [Example No. 6, 1-(3-Nitrophenyl)-3-[2-(pyridin-4-yl)ethyl]-1,8-naphthyridin-2(1H)-one]: the IC50 in the test on PDE I was above 100 µM; on PDE II, above 100 µM; with PDE IV, 0.16 µM; at PDE V, 15 µM.
In the case of `O=c1c(CCc2cccnc2)cc2cccnc2n1-c1cccc([N+](=O)[O-])c1` [Example No. 5, 1-(3-Nitrophenyl)-3-[2-(pyridin-3-yl)ethyl]-1,8-naphthyridin-2(1H)-one], the IC50 with PDE I was 22 µM; on PDE II, above 100 µM; with PDE IV, 0.06 µM; at PDE V, 13 µM.
As to `O=c1c(CCCc2cccnc2)cc2cccnc2n1-c1cccc([N+](=O)[O-])c1` [Example No. 7, 1-(3-Nitrophenyl)-3-[3-(pyridin-3-yl)propyl]-1,8-naphthyridin-2(1H)-one], the IC50 in the test with PDE I is above 100 µM; on PDE II, above 100 µM; in the test with PDE IV it was 1.3 µM; on PDE V it was 4.7 µM.
In the case of `O=c1c(CCCCc2cccnc2)cc2cccnc2n1-c1cccc([N+](=O)[O-])c1` [Example No. 14, 1-(3-Nitrophenyl)-3-[4-(pyridin-3-yl)butyl]-1,8-naphthyridin-2(1H)-one], the IC50 with PDE I is 83 µM; at PDE II it was 85 µM; with PDE IV, 1.5 µM; at PDE V it was 5.1 µM.
Consider `COc1ccc(C2CNC(=O)C2)cc1OC1CCCC1` (single isomer, unassigned) [Rolipram, rolipram, reference compound], for which the IC50 was above 100 µM with PDE I, above 100 µM on PDE II and 0.78 to 3.2 µM with PDE IV.
As for `O=c1c(CCCc2ccncc2)cc2cccnc2n1-c1cccc([N+](=O)[O-])c1` [Example No. 8, 1-(3-Nitrophenyl)-3-[3-(pyridin-4-yl)propyl]-1,8-naphthyridin-2(1H)-one], the IC50 is above 100 µM with PDE I, above 100 µM on PDE II, 0.44 µM in the test with PDE IV and above 100 µM on PDE V.
In the case of `O=c1c(Cc2cccnc2)cc2cccnc2n1-c1cccc([N+](=O)[O-])c1` [Example No. 2, 1-(3-Nitrophenyl)-3-(pyridin-3-ylmethyl)-1,8-naphthyridin-2(1H)-one], the IC50 is above 100 µM in the test with PDE I, above 100 µM on PDE II, 0.11 µM in the test with PDE IV and 16 µM at PDE V.

The record behind these values is patent publication US6642250B2, “1,8-naphthyridin-2(1H)-one derivatives” (Grelan Pharmaceutical Co., Ltd., priority 1999, dated 2003).
